# Data as given in patent EP1752149A1 (LABORATORIOS DEL DR. ESTEVE, S.A., priority 2005, dated 2007).
# Columns and labels:
# [1] = test system: cyclooxygenase-2 (COX-LUC); test: COX2-LUC promoter luciferase reporter in THP-1 cells; format: cell-based, human; conditions: THP-1 (LPS); for IC50: Homo sapiens, approximated value, read-out: COX2-LUC IC-50
# Method: (§1) It was also analyzed how these compounds affect transcriptional induction mediated by the transcription factors Nuclear factor of activated T cells (NFAT) or Nuclear factor (NF)-κB. In these experiments, Jurkat T cells or THP-1 cells were transiently transfected by the Lipofectamine2000 reagent (Invitrogen), with luciferase reporter constructs whose expression are directed by three copies of the Interleukin-2 (IL-2) NFAT responsive element (NFAT-LUC) or by three copies of an NF-κB responsive element (NF-κB-LUC). Cells were treated with increased doses of the compound according to example 1 in the presence or absence of stimulation with the phorbol ester PMA (15 ng/ml) plus the A23187 calcium ionophore (1µM) for 6 hours in Jurkat cells or with LPS (5 µg/ml) for 18 hours in THP-1 cells and luciferase activity was measured in cell lysates. Results obtained are represented as percentage of activation, considering 100% the value of luciferase activity obtained in stimulated cells in the absence of the compound according to example 1. The approximate IC-50 (µM) values for the inhibition of the transcriptional activation of NFAT and NF-κB are also shown (Table 2).
# (§2) The compound according to example 1 was measured for its ability to regulate gene transcription in immune activation through the modulation of the transcriptional activity of luciferase reporter constructs whose expression is directed by the promoter region of genes involved in the inflammation process and immune activation, such as cyclooxygenase-2 (COX-LUC), tumor necrosis factor α (TNF-LUC), Interleukin-2 (IL-2-LUC), Interleukin-6 (IL-6-LUC) and the inducible Nitric Oxide Synthase (iNOS-LUC). Jurkat T cells or THP-1 cells were transiently transfected with these constructs as described above, and treated with different doses of The compound according to example 1 in the presence or absence of stimulation with PMA plus Ion (Jurkat) or LPS in a similar way as for NFAT-LUC and NFKB-LUC reporter analysis. Results are represented as percentage of activation, considering 100% the value of luciferase activity obtained in stimulated cells in the absence of the compound according to example 1. Approximated IC50 (µM) values obtained for inhibition of the transcriptional activation are summarized in tables 3 (Jurkat) and 4 (THP-1).
# TNFα = test: Inhibition of cytokine production: TNFα secretion by Jurkat T cells, ELISA; format: cell-based, human; conditions: Jurkat (PMA+Ion), 24 hours; for IC50: Homo sapiens, approximated value, read-out: TNF IC-50 (µM), inhibition of the cytokine production
# Method: (§3) In addition to the transcriptional assays, we have also determined the effects of the compound according to example 1 in the secretion of TNFα and IL-2 to the culture medium. Jurkat T cells were treated with different doses of the compound according to example 1 in the presence or absence of stimulation with PMA plus Ion for 24 hours. Supematants were collected and cytokines were measured by specific ELISA for each cytokine (Bender MedSystems). Results are represented as percentage of cytokine production, considering 100% the maximal levels of cytokine production (pg/ml) obtained in PMA+lon stimulated Jurkat cells in the absence of the compound according to example 1.
# [2] = test system: tumor necrosis factor α (TNF-LUC); test: TNF-LUC promoter luciferase reporter in Jurkat T cells; format: cell-based, human; conditions: Jurkat (PMA+Ion); for IC50: Homo sapiens, approximated value, read-out: TNF-LUC IC-50
# Method: as §1, §2
# Interleukin-6 (IL-6-LUC) = test: IL-6-LUC promoter luciferase reporter in Jurkat T cells; format: cell-based, human; conditions: Jurkat (PMA+Ion); for IC50: Homo sapiens, approximated value, read-out: IL-6-LUC IC-50
# Method: as §1, §2
# IL-2 = test: Inhibition of cytokine production: IL-2 secretion by Jurkat T cells, ELISA; format: cell-based, human; conditions: Jurkat (PMA+Ion), 24 hours; for IC50: Homo sapiens, approximated value, read-out: IL-2 IC-50 (µM), inhibition of the cytokine production
# Method: as §3
# Nuclear factor (NF)-κB [3] = test: NF-κB-LUC luciferase reporter, transcriptional activation in THP-1 cells; format: cell-based, human; conditions: THP-1 (LPS), 18 hours; for IC50: Homo sapiens, approximate value, read-out: NF-κB-LUC IC-50
# Method: as §1
# [4] = test system: cyclooxygenase-2 (COX-LUC); test: COX2-LUC promoter luciferase reporter in Jurkat T cells; format: cell-based, human; conditions: Jurkat (PMA+Ion); for IC50: Homo sapiens, approximated value, read-out: COX2-LUC IC-50
# Method: as §1, §2
# Interleukin-2 (IL-2-LUC) = test: IL-2-LUC promoter luciferase reporter in Jurkat T cells; format: cell-based, human; conditions: Jurkat (PMA+Ion); for IC50: Homo sapiens, approximated value, read-out: IL-2-LUC IC-50
# Method: as §1, §2
# [5] = test system: Nuclear factor of activated T cells (NFAT); test: NFAT-LUC luciferase reporter, transcriptional activation in Jurkat T cells; format: cell-based, human; conditions: Jurkat (PMA+Ion), 6 hours; for IC50: Homo sapiens, approximate value, read-out: NFAT-LUC IC-50
# Method: as §1
# [6] = test system: tumor necrosis factor α (TNF-LUC); test: TNF-LUC promoter luciferase reporter in THP-1 cells; format: cell-based, human; conditions: THP-1 (LPS); for IC50: Homo sapiens, approximated value, read-out: TNF-LUC IC-50
# Method: as §1, §2
# Nuclear factor (NF)-κB [7] = test: NF-κB-LUC luciferase reporter, transcriptional activation in Jurkat T cells; format: cell-based, human; conditions: Jurkat (PMA+Ion), 6 hours; for IC50: Homo sapiens, approximate value, read-out: NF-κB -LUC IC-50
# Method: as §1
# [8] = test system: inducible Nitric Oxide Synthase (iNOS-LUC); test: iNOS-LUC promoter luciferase reporter in THP-1 cells; format: cell-based, human; conditions: THP-1 (LPS); for IC50: Homo sapiens, approximated value, read-out: iNOS-LUC IC-50
# Method: as §1, §2
# [9] = In-vivo bioassay system for determination of cannabinoid activity (hot-plate test, hypothermia, catalepsy, sedation); conditions: for Agonistic effect A: Hot-Plate test / Agonistic effect B: Hypothermia / Agonistic effect C: Catalepsy / Agonistic effect D: Sedation: 5 mg/kg i.v.
# [10] = Cell viability, tetrazolium salt WST-1, unstimulated Jurkat cells; format: cell-based; conditions: human, Jurkat (Cont), read-out: percentage of viability
# Method: (§4) The viability of the cells was measured by the use of the tetrazolium salt WST-1 (Roche Molecular Biochemicals). Unstimulated Jurkat cells or LPS (5 µg/ml) treated THP-1 cells were incubated for 24 or 18 hours respectively in the presence of increasing doses of the compound according to example 1 (1, 10, 100, 1000 and 10000 nM) and incubated with 10% of WST-1 reagent for 1 hour. Quantification of the formazan dye produced by metabolically active cells was spectrophotometrically measured at 450 nm and a reference wavelength of 630 nm. Data are represented as percentage of viability considering 100% the value of absorbance obtained in the absence of example 1 (Table 1).
# [11] = Cell viability, tetrazolium salt WST-1, LPS treated THP-1 cells; format: cell-based; conditions: human, THP-1 (LPS 5 µg/ml), read-out: percentage of viability
# Method: as §4
# [12] = 5 mg/kg i.v. prior to Win 55212-2 in a dose of 1,25mg/kg i.v.
smiles,measurement,setting,value
"Cc1c(C(=O)NN2CCCCC2)nn(-c2ccc(Cl)cc2Cl)c1-c1ccc(Cl)cc1 [SR141716, reference compound]",IC50,[1],6 µM
same,IC50,TNFα,6 µM
same,IC50,[2],0.01 µM
same,IC50,Interleukin-6 (IL-6-LUC),1 µM
same,IC50,IL-2,7 µM
same,IC50,Nuclear factor (NF)-κB [3],5 µM
same,IC50,[4],> 10 µM
same,IC50,Interleukin-2 (IL-2-LUC),0.1 µM
same,IC50,[5],0.2 µM
same,IC50,[6],3 µM
same,IC50,Nuclear factor (NF)-κB [7],1 µM
same,IC50,[8],3 µM
"O=C(C1=NN(c2ccc(Cl)cc2Cl)C(c2ccc(Cl)cc2)C1)N1CCCCC1 (stereo not shown) [Example 5, [5-(4-Chloro-phenyl)-1-(2,4-dichloro-phenyl)-4,5-dihydro-1H-pyrazol-3-yl]-piperidin-1-yl-methanone]",Agonistic effect A: Hot-Plate test,[9],0
same,Agonistic effect B: Hypothermia,[9],50
same,Agonistic effect C: Catalepsy,[9],0
same,Agonistic effect D: Sedation,[9],0
same,Antagonistic Effect A: Hot-Plate test,[9]; [12],50
same,Antagonistic Effect B: Hypothermia,[9]; [12],40
same,Antagonistic Effect C: Catalepsy,[9]; [12],20
same,Antagonistic Effect D: Sedation,[9]; [12],20
"O=C(NN1CCCCC1)C1=NN(c2ccc(Cl)cc2Cl)C(c2ccc(Cl)cc2)C1 (stereo not shown) [Example 1, N-piperidinyl-5-(4-chlorophenyl)-1-(2,4-dichlorophenyl)-4,5-dihydro-1H-pyrazole-3-carboxamide]","viability at 24 h, 0.01 µM",[10]; 10 nM,92.6%
same,"viability at 24 h, 0.1 µM",[10]; 100 nM,95.4%
same,"viability at 24 h, 1 µM",[10]; 1000 nM,96.3%
same,"viability at 24 h, 10 µM",[10]; 10000 nM,97.7%
same,IC50,[1],2 µM
same,COX2-LUC percentage of activation,[1]; 0.01 µM,102.7%
same,COX2-LUC percentage of activation,[1]; 1 µM,59.6%
same,COX2-LUC percentage of activation,[1]; 10 µM,6.8%
same,"viability at 18 h, 0.01 µM",[11]; 10 nM,105%
same,"viability at 18 h, 1 µM",[11]; 1000 nM,110%
same,"viability at 18 h, 10 µM",[11]; 10000 nM,80.2%
same,IC50,TNFα,5 µM
same,TNF percentage of cytokine production,TNFα; 0.01 µM,79.5%
same,TNF percentage of cytokine production,TNFα; 1 µM,80.3%
same,TNF percentage of cytokine production,TNFα; 10 µM,11.5%
same,IC50,[2],0.1 µM
same,TNF-LUC percentage of activation,[2]; 0.01 µM,59.5%
same,TNF-LUC percentage of activation,[2]; 1 µM,29.9%
same,TNF-LUC percentage of activation,[2]; 10 µM,13.7%
same,IC50,Interleukin-6 (IL-6-LUC),4 µM
same,IL-6-LUC percentage of activation,Interleukin-6 (IL-6-LUC); 0.01 µM,82.3%
same,IL-6-LUC percentage of activation,Interleukin-6 (IL-6-LUC); 1 µM,61.8%
same,IL-6-LUC percentage of activation,Interleukin-6 (IL-6-LUC); 10 µM,18.6%
same,IC50,IL-2,6 µM
same,IL-2 percentage of cytokine production,IL-2; 0.01 µM,97.5%
same,IL-2 percentage of cytokine production,IL-2; 1 µM,98.7%
same,IL-2 percentage of cytokine production,IL-2; 10 µM,13.2%
same,IC50,Nuclear factor (NF)-κB [3],6 µM
same,NF-κB-LUC percentage of activation,Nuclear factor (NF)-κB [3]; 0.01 µM,100.4%
same,NF-κB-LUC percentage of activation,Nuclear factor (NF)-κB [3]; 1 µM,104.6%
same,NF-κB-LUC percentage of activation,Nuclear factor (NF)-κB [3]; 10 µM,3.4%
same,IC50,[4],8 µM
same,COX2-LUC percentage of activation,[4]; 0.01 µM,102.7%
same,COX2-LUC percentage of activation,[4]; 1 µM,93.2%
same,COX2-LUC percentage of activation,[4]; 10 µM,31.5%
same,IC50,Interleukin-2 (IL-2-LUC),1 µM
same,IL-2-LUC percentage of activation,Interleukin-2 (IL-2-LUC); 0.01 µM,85.9%
same,IL-2-LUC percentage of activation,Interleukin-2 (IL-2-LUC); 1 µM,49.0%
same,IL-2-LUC percentage of activation,Interleukin-2 (IL-2-LUC); 10 µM,9.9%
same,Agonistic effect A: Hot-Plate test,[9],0
same,Agonistic effect B: Hypothermia,[9],0
same,Agonistic effect C: Catalepsy,[9],0
same,Agonistic effect D: Sedation,[9],0
same,Antagonistic Effect B: Hypothermia,[9]; [12],100
same,Antagonistic Effect C: Catalepsy,[9]; [12],100
same,Antagonistic Effect D: Sedation,[9]; [12],100
same,IC50,[5],3 µM
same,NFAT-LUC percentage of activation,[5]; 0.01 µM,72.4%
same,NFAT-LUC percentage of activation,[5]; 1 µM,56.8%
same,NFAT-LUC percentage of activation,[5]; 10 µM,7.4%
same,IC50,[6],3 µM
same,TNF-LUC percentage of activation,[6]; 0.01 µM,104.4%
same,TNF-LUC percentage of activation,[6]; 1 µM,65.4%
same,TNF-LUC percentage of activation,[6]; 10 µM,12.7%
same,IC50,Nuclear factor (NF)-κB [7],7 µM
same,NF-κB-LUC percentage of activation,Nuclear factor (NF)-κB [7]; 0.01 µM,94.7%
same,NF-κB-LUC percentage of activation,Nuclear factor (NF)-κB [7]; 1 µM,74.4%
same,NF-κB-LUC percentage of activation,Nuclear factor (NF)-κB [7]; 10 µM,39.3%
same,IC50,[8],4 µM
same,iNOS-LUC percentage of activation,[8]; 0.01 µM,89.5%
same,iNOS-LUC percentage of activation,[8]; 1 µM,71.3%
same,iNOS-LUC percentage of activation,[8]; 10 µM,13.2%
